Assay results as given in US12268739B2, “Use of toll-like receptor 2 (TLR-2) agonist for modulating human immune response” (Children's Medical Center Corporation, priority 2018, dated 2025).
Entries after “also recorded” stand apart in the source; their conditions may differ.

What was measured:
[1] = tested on: NF-κB reporter THP1 cells; experiment: NF-kB-induced luminescence HTS in THP1-Lucia cells (384-well); format: cell-based, human; details: ranked at 3.3 μM; ~200,000 compounds tested
Text: HTS Overview: To identify immunomodulators/adjuvants that robustly activate human immune cells, ˜200,000 small molecules were screening in a THP1 cell-based assay. The chemical libraries screened included known bioactive and commercial libraries from various sources including commercial libraries such as ChemDiv, ChemBridge, and Asinex. All libraries were owned and provided by the Institute of Chemistry and Cell Biology (ICCB)—Longwood (Harvard Medical School). The project primary screen incorporated two distinct arms: a) a luciferase-based screen which corresponds to the relative activation of the NF-κB reporter; and b) a fluorescence-based screen, corresponding to the phenotypic adherence, a distinct marker of cell activation, of the human monocytic THP-1 cell lines. Described herein are small molecules identified in the screen that induce NF-kB activity based on a luciferase-based THP-1 cell screen.
(§1) THP-1 Cell Line and Culture Conditions. The THP1-Lucia™ cell line was obtained from Invivogen (San Diego, CA). THP1-Lucia cells, which are human monocytic cells derived from the blood of a child with leukemia, contain an NF-kB-inducible Luc reporter construct. This allows NF-kB activation to be measured by quantifying the luminescence from the secreted luciferase enzyme. THP1-Lucia cells were cultured in RPMI 1640 supplemented with 10% non-heat inactivated fetal bovine serum (FBS), 10 mM HEPES, 1.0 mM sodium pyruvate, 50 ug/ml Pen-Strep, and 100 ug/mL Normocin™. Once cultured, the cells were stored in a 37° C. incubator with 5% CO2 and a humidified atmosphere. Cells were passaged every 2-3 days and not allowed to exceed a concentration of 2.0×10^6 cells/ml media.
NF-kB-induced Luminescence Assay. THP1-Lucia cells between passage 15 and 18 and suspended in culture medium were dispensed into 384-well black clear-bottom plates (Corning 3712) at 30,000 cells/30 μl/well using a Combi liquid dispenser. To allow comparison to a benchmark small molecule with known immune stimulating activity, cells at the same concentration were stimulated with 50 μM R848, a TLR7/8 agonist, in 0.3% DMSO and added to every other well of column 24, which was left empty of cells, by multichannel pipette at the same volume. Five μl of 700 nM Phorbol myristate acetate (PMA) in THP1 culture media and 2.3% DMSO, a known peripheral blood cell mitogen, was added to every other well of column 23 by multichannel pipette (final concentration in well: 100 nM in 0.3% DMSO). Five μl of THP1 culture media with 2.3% DMSO was added to the remaining wells of column 23 by multichannel pipette (final concentration 0.3% DMSO). One hundred nl aliquots of library compounds diluted in 100% DMSO were transferred from their original 384-well plates to the assay plates using a Seiko pin transfer machine. Each library plate was pinned in duplicate, yielding two assay plates with identical conditions for comparison. Plates were then incubated for 24 hours at 37 C with 5% CO2 in humid conditions. Following incubation, 10 μL of supernatant was removed from each well and transferred to a white plate (Corning 3570) using a Vprep liquid transfer machine. 10 μL of recombinant Lucia protein (Invivogen) diluted 1:2000 in THP1 culture media was added to empty well 24P. Using a Combi liquid dispenser, 50 μL/well of Quanti-Luc substrate (Invivogen) diluted 1:3 in sterile water was added to the assay plate. Immediately after adding the substrate, the luminescence was read using a PerkinElmer Envision plate reader.

THP1-NF-κB cells = experiment: THP1-NF-κB cell stimulation for 24 hours, secreted luciferase luminescence; format: cell-based, human; details: for THP1 cells (relative luminescence units, N = 4) Comp at 25 uM / THP1 cells (relative luminescence units, N = 4) Comp at 100 uM: NF-κB-dependent luminescence, 24 hours; for THP1 cells (relative luminescence units, N = 4) Comp at 25 uM: compound at 25 uM; for THP1 cells (relative luminescence units, N = 4) Comp at 100 uM: compound at 100 uM
Procedure: as §1
PBMCs were isolated from blood using a Ficoll density gradient. PBMCs either used fresh or were stored at 5×10^7 cells per vial in 1 mL RPMI containing 20% autologous plasma and 10% DMSO at −80° C. until use. Stimulation plates were prepared by transferring 0.66 μl of DMSO-dissolved compounds (30 or 7.5 mM) to each well of a round bottom 96-well plate. PBMCs isolated from human adult donors or THP1-NF-κB cells were resuspended at a concentration of 10^5 cells/200 μl of RPMI supplemented with 10% of platelet-poor plasma or THP1 culture medium, respectively. 200 μl of the cell suspension were transferred to each well resulting in a final compound concentration of 100 or 25 μM. After 24 hours of incubation (37° C., 5% CO2), plates were spun down (500×g, room temperature, 5 minutes) and supernatants were harvested for further analysis.

human TLR2 [2] = molecular target: T1, human TLR2 (Homo sapiens, UniProt O60603); experiment: HEK-Blue human TLR cell screening (NF-κB SEAP reporter); format: cell-based; details: compounds at 10 μM, fold change over negative controls
T1 construct: expressed in transfected cells; host or cells: HEK-Blue (human embryonic kidney) cells with an NF-kB-inducible SEAP reporter
Procedure: HEK cell screening. Human embryonic kidney (HEK)-Blue cell lines expressing human TLRs (hTLRs) and a secreted embryonic alkaline phosphatase (SEAP) reporter under the control of an NF-κB-inducible promoter were cultured in 96-well plates (50,000-75,000 cells/200 μl/well) and stimulated with the indicated compounds at 10 µM or positive controls. The media added to the wells is designed for detection of NF-κB-induced SEAP expression. After 16-24 hours of incubation optical density (OD) was read at 650 nm on a Molecular Devices SpectraMax 340PC absorbance detector. Positive controls employed in this assay were: heat-killed Listeria monocytogenes (1×10^8 cells/ml) for hTLR2, Poly (I:C) HMW (1 μg/ml) for hTLR3, ? E. coli K12 LPS (100 ng/ml) for hTLR4, S. typhimurium flagellin (100 ng/ml) for hTLR5, CL307 (1 μg/ml) for hTLR7, CL075 (1 μg/ml) for hTLR8 and CpG ODN 2006 (1 μg/ml) for hTLR9.

human adult PBMCs = experiment: Cytokine production by stimulated human adult PBMCs (ELISA / multiplex); format: cell-based; details: for Adult PBMCs (median ng/ml) IL-6 (N = 7) / Adult PBMCs (median ng/ml) TNFa (N = 13): human adult PBMCs, compounds at 100 µM (FIG. 7), ELISA
Procedure: ELISAs and Multiplex-Analyte Assays. Supernatants derived from human PBMCs stimulations were assayed by ELISA for TNF and IL-6 (ThermoFisher Scientific; Waltham, MA, USA). Cytokine and chemokine expression profiles (e.g., IFNγ, IL-9, IL-10, IL-12 (p70), IL-13, IL-1β, IL-23, IL-27, IL-28A, IL-33, IL-6, MIP-3α/CCL20, and TNF) in cell culture supernatants were measured using a customized Milliplex® Human Th17 Magnetic Bead Panel according to the manufacturer's instructions (Millipore, Chicago, IL, USA). Assays were read and analyzed on the Luminex® 100/200TM System and xPOTENT® software (Luminex, Austin, TX). A minimum threshold was set at the minimum detectable concentration for each individual assay, defined as three standard deviations above the mean background.
PBMCs were isolated from blood using a Ficoll density gradient. PBMCs either used fresh or were stored at 5×10^7 cells per vial in 1 mL RPMI containing 20% autologous plasma and 10% DMSO at −80° C. until use. […] PBMCs isolated from human adult donors or THP1-NF-κB cells were resuspended at a concentration of 10^5 cells/200 μl of RPMI supplemented with 10% of platelet-poor plasma or THP1 culture medium, respectively. […] After 24 hours of incubation (37° C., 5% CO2), plates were spun down (500×g, room temperature, 5 minutes) and supernatants were harvested for further analysis.

human TLR2 [3] = molecular target: T1, human TLR2; experiment: HEK293 assay for human TLR2 selectivity (NF-κB/SEAP); format: cell-based; details: 18-24 hours stimulation, titratable
Procedure: (§2) HEK293 assay for human TLR2 and TLR8 selectivity: Human embryonic kidney (HEK) 293 cells expressing human TLR2 or TLR8 with an NF-κB-responsive secreted embryonic alkaline phosphatase (SEAP) reporter gene were obtained from Invivogen (San Diego, CA). Cells were maintained in RPMI or DMEM with 10% heat inactivated-FBS and selection antibiotics per the manufacturer's instructions. Cells were plated at 5×10^5 cells/96-well and stimulated with indicated agonist(s) for 24 hours. Supernatants were harvested and analyzed for NF-κB/SEAP activation using the QuantiBlue kit (Invivogen). Values are expressed as fold change in OD650 over vehicle-only treated samples.

human TLR8 = molecular target: T2, human TLR8 (Homo sapiens, UniProt Q9NR97); experiment: HEK293 assay for human TLR8 selectivity (NF-κB/SEAP); format: cell-based; details: selectivity counter-assay
T2 construct: host or cells: HEK293 cells with an NF-kB-responsive SEAP reporter gene
T2 sequence (Q9NR97 27-1041): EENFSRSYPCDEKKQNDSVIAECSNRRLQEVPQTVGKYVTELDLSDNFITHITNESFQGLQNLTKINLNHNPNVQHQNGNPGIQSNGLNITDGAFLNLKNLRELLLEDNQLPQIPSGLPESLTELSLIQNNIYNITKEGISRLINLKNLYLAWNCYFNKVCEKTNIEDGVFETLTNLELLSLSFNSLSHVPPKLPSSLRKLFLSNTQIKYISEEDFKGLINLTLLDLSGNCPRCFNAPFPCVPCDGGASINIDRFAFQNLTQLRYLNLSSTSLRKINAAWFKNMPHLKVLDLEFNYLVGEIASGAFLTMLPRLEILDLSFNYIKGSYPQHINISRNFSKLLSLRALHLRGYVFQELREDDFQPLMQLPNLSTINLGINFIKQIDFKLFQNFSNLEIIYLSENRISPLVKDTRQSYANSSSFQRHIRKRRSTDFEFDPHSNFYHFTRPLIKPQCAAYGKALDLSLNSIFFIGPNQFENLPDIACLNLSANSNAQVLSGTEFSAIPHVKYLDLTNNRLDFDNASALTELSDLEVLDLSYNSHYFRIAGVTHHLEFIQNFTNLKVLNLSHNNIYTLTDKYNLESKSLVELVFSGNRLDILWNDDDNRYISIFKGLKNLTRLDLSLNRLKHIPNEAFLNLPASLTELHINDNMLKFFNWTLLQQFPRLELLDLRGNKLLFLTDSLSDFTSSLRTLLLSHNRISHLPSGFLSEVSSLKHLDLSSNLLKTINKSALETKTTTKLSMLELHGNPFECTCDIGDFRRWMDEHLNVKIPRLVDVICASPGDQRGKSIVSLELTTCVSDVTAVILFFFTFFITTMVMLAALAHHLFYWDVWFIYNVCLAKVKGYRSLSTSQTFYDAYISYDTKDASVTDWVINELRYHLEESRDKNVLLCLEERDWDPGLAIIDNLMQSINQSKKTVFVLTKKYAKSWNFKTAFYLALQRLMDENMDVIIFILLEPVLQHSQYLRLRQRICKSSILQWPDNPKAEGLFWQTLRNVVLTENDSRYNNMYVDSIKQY
Procedure: as §2

T1 sequence (O60603 21-784): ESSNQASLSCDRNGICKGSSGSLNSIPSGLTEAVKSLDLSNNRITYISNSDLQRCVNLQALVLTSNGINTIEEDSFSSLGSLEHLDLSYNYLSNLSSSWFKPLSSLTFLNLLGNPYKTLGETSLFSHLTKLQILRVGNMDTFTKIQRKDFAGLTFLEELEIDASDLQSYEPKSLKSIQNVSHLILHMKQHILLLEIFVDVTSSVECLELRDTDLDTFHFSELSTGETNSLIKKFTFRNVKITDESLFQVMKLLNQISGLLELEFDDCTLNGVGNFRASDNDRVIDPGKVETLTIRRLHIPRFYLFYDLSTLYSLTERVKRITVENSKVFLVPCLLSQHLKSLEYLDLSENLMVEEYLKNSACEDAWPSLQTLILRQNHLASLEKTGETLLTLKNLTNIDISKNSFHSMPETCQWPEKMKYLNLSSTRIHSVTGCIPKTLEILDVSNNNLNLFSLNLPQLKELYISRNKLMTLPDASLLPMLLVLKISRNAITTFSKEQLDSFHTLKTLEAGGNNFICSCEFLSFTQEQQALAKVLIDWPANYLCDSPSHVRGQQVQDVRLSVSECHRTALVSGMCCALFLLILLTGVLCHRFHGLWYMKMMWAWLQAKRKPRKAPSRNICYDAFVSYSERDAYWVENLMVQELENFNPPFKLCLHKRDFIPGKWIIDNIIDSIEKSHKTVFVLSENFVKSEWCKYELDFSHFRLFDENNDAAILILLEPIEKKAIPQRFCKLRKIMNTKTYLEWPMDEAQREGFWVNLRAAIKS

SMILES	Efficacy in activating NF-κB in THP1 cells (screening hits) [1]	Activation of THP1 cells (THP1-NF-κB cells; 384 and 96 well assay)	Activation of human TLR2 (NF-κB activation in TLR-expressing HEK-Blue cells) (human TLR2 [2])	Activation of human adult PBMCs (cytokine levels by multiplex assay) (human adult PBMCs; 384-well plates, 24 hours, 0.05-33 μM)	Activation of human adult PBMCs (human adult PBMCs; 384 and 96 well assay)	TLR2 activation in HEK TLR2 cells (SEAP) (human TLR2 [3])	THP1 cells (relative luminescence units, N = 4) Comp at 25 uM (THP1-NF-κB cells)	THP1 cells (relative luminescence units, N = 4) Comp at 100 uM (THP1-NF-κB cells)	TLR8 induction in HEK TLR8 cells (SEAP) (human TLR8)	Adult PBMCs (median ng/ml) IL-6 (N = 7) (human adult PBMCs; 24 hours) [ng/mL]	Adult PBMCs (median ng/ml) TNFa (N = 13) (human adult PBMCs; 24 hours) [ng/mL]
COC(=O)c1c(NC(=O)CN2CCC3(CC2)OCCO3)sc2c1CCCC2 [Compound 004]	most effective NF-κB activators; also recorded: most effective NF-kB activators	induced activation of THP1 cells	activate human TLR2; also recorded: activated the human TLR2-expressing human embryonic kidney (HEK)-Blue cell line	activates human adult PBMCs in a concentration-dependent manner	induced activation						
CCOC(=O)c1c(NC(=S)Nc2ccccc2OC)sc2c1CC(C)(C)OC2 [Compound 070]	most effective		activate human TLR2								
CNC(=O)c1c(NC(=O)c2ccc(S(=O)(=O)N(C)C)cc2)sc2c1CCCC2 [Compound 80.3]						induced TLR2 specific activation	2835 relative luminescence units	3630 relative luminescence units	without induction of TLR8	0.008	0.008
CNC(=O)c1c(NC(=O)c2ccc(S(=O)(=O)N3CCCC3)cc2)sc2c1CCC2 [Compound 80.10]						induced TLR2 specific activation	3576 relative luminescence units	4814 relative luminescence units	without induction of TLR8	0.012	0.008
CNC(=O)c1c(NC(=O)c2ccc(S(=O)(=O)N(C)C)cc2)sc(C)c1C [Compound 80.15]						induced TLR2 specific activation	6369 relative luminescence units	9715 relative luminescence units	without induction of TLR8	0.008	0.0225
